Measured values as given in US11738065B2, “Polypeptides and analogues thereof for use in the treatment of diabetes and bone disorders” (UNIVERSITY OF ULSTER, priority 2015, dated 2023).
Marks after values point to notes of the source that are not given here.

Key:
high fat fed mice [1] = assay: Sub chronic 21 day twice daily study in high fat fed mice (energy intake, body weight, body composition, glucose, insulin); type: in vivo; conditions: 25 nmol/kg twice daily
Procedure: All animal experiments were carried out in accordance with the UK Animals (Scientific Procedures) Act 1986. […] On day 21, a non-fasted 24 h glucose profile was conducted. […] HOMA-IR was determined using the equation HOMA-IR=fasting glucose (mmol/l)×fasting insulin (mU/l)/22.5. […] Terminal analysis included measurement of total body fat and lean mass by DEXA scanning (Piximus Densitometer, Inside Outside Sales, Madison Wis., USA) and extraction of pancreatic tissue for analysis as detailed below. […] Briefly, pancreatic tissues were fixed in 4% parafolmaldehyde at 4° C. for 48 h. Pancreata were then embedded in paraffin wax and processed using an automated tissue processor (Leica TP1020, Leica Microsystems, Nussloch, Germany). […] Abcam, ab6995) or guinea-pig anti-glucagon antibody (PCA2/4, 1:400; raised in-house). […] The slides were viewed under a FITC (488 nm) or TRITC filter (594 nm) using a fluorescent microscope (Olympus system microscope, model BX51) and photographed using a DP70 camera adapter system. Islet parameters were analysed using Cell^F image analysis software (Olympus Soft Imaging Solutions, GmbH). Blood samples were collected from the cut tip on the tail vein of conscious mice into chilled fluoride/heparin glucose micro-centrifuge tubes (Sarstedt, Numbrecht, Germany) at the time points indicated in the Drawings. Blood glucose was measured directly using a hand-held Ascencia Contour blood glucose meter (Bayer Healthcare, Newbury, Berkshire, UK).

purified porcine DPP-4 = target: T1, purified porcine DPP-4 (Sus scrofa, UniProt P22411); assay: DPP-4 degradation / in vitro DPP-4 half-life; type: in vitro ADME; conditions: incubated in the presence of DPP-4 for up to 12 hs
T1 construct: purchased Sigma-Aldrich, Dorset, UK
T1 sequence (P22411 whole entry): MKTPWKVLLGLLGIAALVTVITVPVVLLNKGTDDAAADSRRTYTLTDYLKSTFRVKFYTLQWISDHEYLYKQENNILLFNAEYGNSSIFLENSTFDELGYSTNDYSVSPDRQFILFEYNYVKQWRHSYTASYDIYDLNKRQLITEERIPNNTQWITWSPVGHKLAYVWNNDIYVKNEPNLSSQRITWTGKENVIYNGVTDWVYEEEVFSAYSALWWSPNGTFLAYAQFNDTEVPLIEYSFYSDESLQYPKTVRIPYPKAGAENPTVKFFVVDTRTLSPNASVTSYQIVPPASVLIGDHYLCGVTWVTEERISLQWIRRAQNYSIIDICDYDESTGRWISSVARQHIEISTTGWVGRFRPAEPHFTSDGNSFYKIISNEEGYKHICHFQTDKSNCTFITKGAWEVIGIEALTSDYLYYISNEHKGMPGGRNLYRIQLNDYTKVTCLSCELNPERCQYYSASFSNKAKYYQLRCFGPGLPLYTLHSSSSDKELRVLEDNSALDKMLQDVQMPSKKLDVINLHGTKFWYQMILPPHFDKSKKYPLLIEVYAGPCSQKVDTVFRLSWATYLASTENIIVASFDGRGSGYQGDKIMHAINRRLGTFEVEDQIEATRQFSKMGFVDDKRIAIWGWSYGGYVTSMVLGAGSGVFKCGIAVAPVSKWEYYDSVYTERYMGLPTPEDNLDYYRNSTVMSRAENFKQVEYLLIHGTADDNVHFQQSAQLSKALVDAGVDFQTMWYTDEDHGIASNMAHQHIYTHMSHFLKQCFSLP
Procedure: (§1) For calculation of experimental molecular masses, peptide samples (1 μg) were mixed with α-cyano-4-hydroxycinnamic acid (1 μg) and applied to a Voyager-DE BioSpectrometry Workstation and mass-to-charge (m/z) ratio verses peak intensity recorded by MALDI-TOF mass spectrometry. […] Degradation profiles were obtained using rp-HPLC analysis and HPLC peak area data used to calculate percentage intact peptide remaining at each time point.
(§2) Briefly, polypeptides (20 μg) were incubated with 5 μl of purified DPP-4 (5 mU, Sigma-Aldrich, Dorset, UK) in 50 mM TEA-HCl (pH 7.8; final volume 450 μl) at 37° C. for 0, 1, 4 and 12 hours. Enzymatic reactions were terminated by the addition of 50 μl TFA/H2O (10% v/v, Sigma-Aldrich, Dorset, UK). Reaction products were then separated by HPLC and analysed using MALDI-TOF.

DPP-4 = target: T2, DPP-4 (Sus scrofa, UniProt P22411); assay: DPP-4 degradation / in vitro DPP-4 half-life; type: in vitro ADME, porcine; conditions: pig; 37° C., 50 mmol/L TEA-HCl pH 7.8, 5 mU purified porcine DPP-4, 0-12 h
T2 construct: purchased Sigma-Aldrich, Dorset, UK
T2 sequence (P22411 whole entry): as above
Procedure: as §1, §2

high fat fed mice [2] = assay: Glucose tolerance test after 21 days treatment; type: in vivo
Procedure: Twice daily (09:30 and 17:30 h) i.p. injections of saline vehicle (0.9% w/v NaCl), polypeptides (at 25 nmol/kg bw) were administered for 21 days in high fat mice. Energy intake and body weight were monitored daily, and non-fasting blood glucose and plasma insulin concentrations were assessed at 3 day intervals. On day 21, a non-fasted 24 h glucose profile was conducted. At the end of the treatment period, i.p. glucose tolerance (18 mmol/kg bw), biological response to GIP (18 mmol/kg glucose in combination with native GIP (25 nmol/kg); i.p.) and insulin sensitivity (15 U/kg bw; i.p.) tests were performed. HOMA-IR was determined using the equation HOMA-IR=fasting glucose (mmol/l)×fasting insulin (mU/l)/22.5. All test solutions were administered in a final volume of 5 ml/kg body weight, at 10:00 h without previous 09:30 h peptide injection. Terminal analysis included measurement of total body fat and lean mass by DEXA scanning (Piximus Densitometer, Inside Outside Sales, Madison Wis., USA) and extraction of pancreatic tissue for analysis as detailed below. Immunohistochemistry Pancreatic tissue was excised, divided longitudinally and either immediately snap frozen for subsequent extraction of insulin using acid ethanol extraction (5 ml/g) as described by Irwin et al., 2015 (Diabetes. 2015 August; 64(8):2996-3009), or processed for immunohistochemical examination. Briefly, pancreatic tissues were fixed in 4% parafolmaldehyde at 4° C. for 48 h. Pancreata were then embedded in paraffin wax and processed using an automated tissue processor (Leica TP1020, Leica Microsystems, Nussloch, Germany). Immunohistochemistry was performed as described by Vasu et al., 2014 (PLoS One. 2014 Jun. 26; 9(6):e101005). Succinctly, tissue sections were deparaffinised, rehydrated and probed with primary antibodies: mouse anti-insulin antibody (1:500; Abcam, ab6995) or guinea-pig anti-glucagon antibody (PCA2/4, 1:400; raised in-house). The sections were then incubated with secondary antibody, Alexa Fluor 488 goat anti-guinea pig IgG (1:400) or Alexa Fluor 594 goat anti-mouse IgG (1:400); respectively. […] Islet parameters were analysed using Cell^F image analysis software (Olympus Soft Imaging Solutions, GmbH).
Tests were conducted after twice daily treatment with saline vehicle (0.9% (w/v) NaCl), (DAla^2)GIP and (DAla^2)GIP/xenin-8-Gln (each at 25 nmol/kg bw) for 21 days. For glucose tolerance test, blood glucose and plasma insulin concentrations were measured before and 15, 30, 60 and 105 min after i.p injection of glucose (18 mmol/kg bw). For metabolic response to GIP, blood glucose and plasma insulin concentrations were measured before and 15, 30, 60 and 105 min after i.p injection of glucose (18 mmol/kg bw) in combination with GIP (25 nmol/kg bw). […]

high fat fed mice [3] = assay: Metabolic response to GIP after 21 days treatment; type: in vivo
Procedure: Twice daily (09:30 and 17:30 h) i.p. injections of saline vehicle (0.9% w/v NaCl), polypeptides (at 25 nmol/kg bw) were administered for 21 days in high fat mice. Energy intake and body weight were monitored daily, and non-fasting blood glucose and plasma insulin concentrations were assessed at 3 day intervals. On day 21, a non-fasted 24 h glucose profile was conducted. At the end of the treatment period, i.p. glucose tolerance (18 mmol/kg bw), biological response to GIP (18 mmol/kg glucose in combination with native GIP (25 nmol/kg); i.p.) and insulin sensitivity (15 U/kg bw; i.p.) tests were performed. HOMA-IR was determined using the equation HOMA-IR=fasting glucose (mmol/l)×fasting insulin (mU/l)/22.5. All test solutions were administered in a final volume of 5 ml/kg body weight, at 10:00 h without previous 09:30 h peptide injection. Terminal analysis included measurement of total body fat and lean mass by DEXA scanning (Piximus Densitometer, Inside Outside Sales, Madison Wis., USA) and extraction of pancreatic tissue for analysis as detailed below. Immunohistochemistry Pancreatic tissue was excised, divided longitudinally and either immediately snap frozen for subsequent extraction of insulin using acid ethanol extraction (5 ml/g) as described by Irwin et al., 2015 (Diabetes. 2015 August; 64(8):2996-3009), or processed for immunohistochemical examination. Briefly, pancreatic tissues were fixed in 4% parafolmaldehyde at 4° C. for 48 h. Pancreata were then embedded in paraffin wax and processed using an automated tissue processor (Leica TP1020, Leica Microsystems, Nussloch, Germany). Immunohistochemistry was performed as described by Vasu et al., 2014 (PLoS One. 2014 Jun. 26; 9(6):e101005). Succinctly, tissue sections were deparaffinised, rehydrated and probed with primary antibodies: mouse anti-insulin antibody (1:500; Abcam, ab6995) or guinea-pig anti-glucagon antibody (PCA2/4, 1:400; raised in-house). The sections were then incubated with secondary antibody, Alexa Fluor 488 goat anti-guinea pig IgG (1:400) or Alexa Fluor 594 goat anti-mouse IgG (1:400); respectively. The slides were viewed under a FITC (488 nm) or TRITC filter (594 nm) using a fluorescent microscope (Olympus system microscope, model BX51) and photographed using a DP70 camera adapter system. Islet parameters were analysed using Cell^F image analysis software (Olympus Soft Imaging Solutions, GmbH).
Tests were conducted after twice daily treatment with saline vehicle (0.9% (w/v) NaCl), (DAla^2)GIP and (DAla^2)GIP/xenin-8-Gln (each at 25 nmol/kg bw) for 21 days. For glucose tolerance test, blood glucose and plasma insulin concentrations were measured before and 15, 30, 60 and 105 min after i.p injection of glucose (18 mmol/kg bw). For metabolic response to GIP, blood glucose and plasma insulin concentrations were measured before and 15, 30, 60 and 105 min after i.p injection of glucose (18 mmol/kg bw) in combination with GIP (25 nmol/kg bw). All studies were conducted in 18 h fasted mice. AUC values (0-105 min) for blood glucose and plasma insulin are shown. Values represent means±SEM for 6-8 mice. *P<0.05, **P<0.01, […] compared to high fat controls. ^ΔP<0.05, ^ΔΔP<0.01, ^ΔΔΔP<0.001 compared to lean controls.

[4] = 0-105 min, glucose 18 mmol/kg i.p., 18 h fasted, after 21 days 25 nmol/kg twice daily, mean ± SEM
[5] = 21 days treatment, vs high fat controls
[6] = 0-105 min, glucose 18 mmol/kg + GIP 25 nmol/kg i.p., 18 h fasted, after 21 days treatment, mean ± SEM

Question: Which “Non-fasting 24 h glucose profile on day 21” value (high fat fed mice [1]) does the source give for CC[C@H](C)[C@H](NC(=O)[C@H](CO)NC(=O)[C@H](Cc1ccc(O)cc1)NC(=O)[C@H](CC(=O)O)NC(=O)[C@H](CO)NC(=O)[C@@H](NC(=O)[C@H](Cc1ccccc1)NC(=O)[C@@H](NC(=O)CNC(=O)[C@H](CCC(=O)O)NC(=O)[C@@H](C)NC(=O)[C@@H](N)Cc1ccc(O)cc1)[C@@H](C)O)[C@@H](C)CC)C(=O)N[C@@H](C)C(=O)N[C@@H](CCSC)C(=O)N[C@@H](CC(=O)O)C(=O)N[C@@H](CCCCN)C(=O)N[C@H](C(=O)N[C@@H](Cc1c[nH]cn1)C(=O)N[C@@H](CCC(N)=O)C(=O)N[C@@H](CCC(N)=O)C(=O)N[C@@H](CC(=O)O)C(=O)N[C@@H](Cc1ccccc1)C(=O)N[C@H](C(=O)N[C@@H](CC(N)=O)C(=O)N[C@@H](Cc1c[nH]c2ccccc12)C(=O)N[C@@H](CC(C)C)C(=O)N[C@@H](CC(C)C)C(=O)N[C@@H](C)C(=O)N[C@@H](CCC(N)=O)C(=O)N[C@@H](CCCCN)C(=O)NCC(=O)N[C@@H](CCCCN)C(=O)N[C@@H](CCCCN)C(=O)N[C@@H](CC(N)=O)C(=O)N[C@@H](CC(=O)O)C(=O)N[C@@H](Cc1c[nH]c2ccccc12)C(=O)N[C@@H](CCCCN)C(=O)N[C@@H](Cc1c[nH]cn1)C(=O)N[C@@H](CC(N)=O)C(=O)N[C@H](C(=O)N[C@H](C(=O)N[C@@H](CCC(N)=O)C(=O)O)[C@@H](C)O)[C@@H](C)CC)C(C)C)[C@@H](C)CC [(DAla2)GIP, TYR-(d)ALA-GLU-GLY-THR-PHE-ILE-SER-ASP-TYR-SER-ILE-ALA-MET-ASP-LYS-ILE-HIS-GLN-GLN-ASP-PHE-VAL-ASN-TRP-LEU-LEU-ALA-GLN-LYS-GLY-LYS-LYS-ASN-ASP-TRP-LYS-HIS-ASN-ILE-THR-GLN] here?
Answer: also reduced, but not to the same extent

Question: What about the Circulating plasma insulin (high fat fed mice [1]; 21 days) of the same compound?
Answer: tendency for reduced plasma insulin levels

Question: And the “Energy intake or body weight” value (high fat fed mice [1]; 21 days, vs high fat controls)?
Answer: no significant effect

Question: What about the “Total body fat and lean mass (DXA)” value (high fat fed mice [1]; after 21 days) of the same compound?
Answer: unaltered

Question: And the “Non-fasting blood glucose vs lean control mice” value (high fat fed mice [1]; from day 12 onwards)?
Answer: not significantly different from lean control mice

Question: What about the “Intactness on incubation with DPP-4” value (purified porcine DPP-4) of the same compound?
Answer: remained fully intact

Question: What about the half-life (DPP-4) of the same compound?
Answer: > 12 h

Question: And the “Glucose tolerance test Blood glucose AUC” value (high fat fed mice [2]; [4])?
Answer: 1714.7 ± 138.6^Δ mmol/l · min

Question: And the “Glucose tolerance test Plasma insulin AUC” value (high fat fed mice [2]; [4])?
Answer: 65.4 ± 9.2^Δ ng/ml · min

Question: What about the “Glucose-stimulated plasma insulin AUC” value (high fat fed mice [2]; [5]) of the same compound?
Answer: reduced, albeit non-significantly

Question: What about the “Overall AUC blood glucose following a glucose load” value (high fat fed mice [2]; 21 days treatment, vs saline controls) of the same compound?
Answer: strong tendency to reduce overall AUC blood glucose levels

Question: What about the “Metabolic response to GIP Blood glucose AUC” value (high fat fed mice [3]; [6]) of the same compound?
Answer: 1029.5 ± 138.0* mmol/l · min

Question: What about the “Metabolic response to GIP Plasma insulin AUC” value (high fat fed mice [3]; [6]) of the same compound?
Answer: 142.3 ± 19.2**^,ΔΔΔ ng/ml · min

Question: And the “Glucose lowering and insulin releasing actions of native GIP” value (high fat fed mice [3]; 21 days treatment)?
Answer: significantly (P<0.05) improved

Question: And the “Decrease of overall blood glucose AUC in response to GIP vs saline treated control mice” value (high fat fed mice [3]; 21 days treatment, P<0.05)?
Answer: 36%

Question: And the “GIP-induced elevations of plasma insulin (AUC)” value (high fat fed mice [3]; [5])?
Answer: significantly (P<0.05 to P<0.01) augmented
